From patent publication US5081241A, “Spiro-pyridazines and analogs thereof useful as aldose reductase inhibitors” (American Home Products Corporation, priority 1990, dated 1992)

Columns and labels:
[1] = system: accumulation of dulcitol in the lenses, sciatic nerves and diaphragm of rats fed galactose; assay: in vivo lowering of galactitol (dulcitol) accumulation in galactosemic rats; parameters: species or system male Sprague-Dawley rats
Text: The aldose reductase inhibiting property of the compounds of this invention and the utilization of the compounds in preventing, diminishing and alleviating diabetic complications are demonstrable in experiments using galactosemic rats, see Dvornik et al., Science, 182, 1146 (1973). Such experiments are exemplified hereinbelow after the listing of the following general comments pertaining to these experiments:
(a) Four or more groups of six male rats, 50-70 g, Sprague-Dawley strain, were used. The first group, the control group, was fed a mixture of laboratory chow (rodent Laboratory Chow, Purina) and glucose at 20% (w/w %) concentration. An untreated galactosemic group was fed a similar diet in which galactose was substituted for glucose. The third group was fed a diet prepared by mixing a given amount of the test compound with the galactose containing diet. The concentration of galactose in the diet of the treated groups was the same as that for the untreated galactosemic group.
(b) After four days, the animals were killed by euthanization. Both the lens and sciatic nerve were removed, weighed and stored frozen for polyol determination.
(§1) (c) The polyol determination was performed by a modification of the procedure of M. Kraml and L. Cosyns, Clin. Biochem., 2, 373 (1969). Only two minor reagent changes were made: (a) the rinsing mixture was an aqueous 5% (w/v) trichloroacetic acid solution and (b) the stock solution was prepared by dissolving 25 mg of dulcitol in 100 mL of an aqueous trichloroacetic acid solution. [N.B.: For each experiment the average value found in the tissue from rats fed the glucose diet was subtracted from the individual values found in the corresponding tissue in galactose-fed rats to obtain the amount of polyol accumulated.] The aldose reductase inhibiting effects of the compounds of formula (I) were also tested by employing an in vitro testing procedure similar to that described by S. Hayman and J. H. Kinoshita, J. Biol. Chem., 240, 877 (1965). In the present case the procedure of Hayman and Kinoshita was modified in that the final chromatography step was omitted in the preparation of the enzyme from bovine lens.
The figures under L, N, and D represent the percentage decrease of dulcitol accumulation in the tissues of the lens, sciatic nerve, and diaphragm, respectively, for treated rats as compared to untreated rats.

aldose reductase = target: T1, aldose reductase (Bos taurus, UniProt P16116); assay: in vitro aldose reductase inhibition (modified Hayman and Kinoshita procedure; enzyme from bovine lens); type: biochemical; conditions: 10^-5
T1 construct: preparation of the enzyme from bovine lens; from tissue; host or cells: bovine lens
Experimental: as §1

[2] = feed or water, 55 mg/kg/day, 96 h

% Inhibition In Vitro (aldose reductase) [%] | SMILES | % Lowering Galacititol Accumulation In Vivo % (D) [1, 2] [%] | % Lowering Galacititol Accumulation In Vivo % (D) ([1]; diaphragm, dose 25 mg/kg/day in diet, 4 days, vs untreated galactosemic rats) [%] | % Lowering Galacititol Accumulation In Vivo % (D) ([1]; diaphragm, dose 47 mg/kg/day in diet, 4 days, vs untreated galactosemic rats) [%] | % Lowering Galacititol Accumulation In Vivo % (L) ([1]; lens, dose 47 mg/kg/day in diet, 4 days, vs untreated galactosemic rats) [%]
21 | CN1NC(=O)C2(CC1=O)C(=O)N(Cc1ccc(Br)cc1F)C(=O)c1ccccc12 (centres unmarked) [R^1 = H, R^5 = H, 2-[(4-bromo-2-fluorophenyl)methyl]-1'-methylspiro[isoquinoline-4(1H),4'(1'H)-pyridazine]-1,3,3',6'(2H,2'H,5'H)-tetrone] | 21 |  |  | 
6 | CN1C(=O)CC2(C(=O)N(Cc3ccc(Br)cc3F)C(=O)c3ccccc32)C(=O)N1C (centres unmarked) [R^1 = H, R^5 = CH3, 2-[(4-bromo-2-fluorophenyl)methyl]-1',2'-dimethylspiro[isoquinoline-4(1H),4'(1'H)-pyridazine]-1,3,3',6'(2H,2'H,5'H)-tetrone] | 82 | 48 |  | 
5 | CN1C(=O)CC2(C(=O)N(Cc3ccc(Br)cc3F)C(=O)c3ccc(F)cc32)C(=O)N1C (centres unmarked) [R^1 = F, R^5 = CH3, 2-[(4-bromo-2-fluorophenyl)methyl]-6-fluoro-1',2'-dimethylspiro[isoquinoline-4(1H),4'(1'H)-pyridazine]-1,3,3',6'(2H,2'H,5'H)-tetrone] |  |  | 59 | 18
